Laboratory results from PMC8330742, “New benzothieno[2,3-c]pyridines as non-steroidal CYP17 inhibitors: design, synthesis, anticancer screening, apoptosis induction, and in silico ADME profile studies” (Journal of Enzyme Inhibition and Medicinal Chemistry, 2021).

Key:
HL-60(TB) = assay: NCI-60 SRB screen; assay type: cell-based, human; details: Homo sapiens; HL-60 (TB); single dose 10^−5 M; read-out: Growth inhibition (%)
K-562 = assay: NCI-60 SRB screen; assay type: cell-based, human; details: Homo sapiens, K562; K-562; single dose 10^−5 M; read-out: Growth inhibition (%)
MOLT-4 = assay: NCI-60 SRB screen; assay type: cell-based; details: Homo sapiens; MOLT-4; single dose 10^−5 M; read-out: Growth inhibition (%)
SR = assay: NCI-60 SRB screen; assay type: cell-based; details: Homo sapiens, single dose 10^−5 M, read-out: Growth inhibition (%)
A549/ATCC = assay: NCI-60 SRB screen; assay type: cell-based, human; details: Homo sapiens, single dose 10^−5 M, read-out: Growth inhibition (%)
EKVX = assay: NCI-60 SRB screen; assay type: cell-based, human; details: Homo sapiens, single dose 10^−5 M, read-out: Growth inhibition (%)
HOP-62 = assay: NCI-60 SRB screen; assay type: cell-based, human; details: Homo sapiens; HOP-62; single dose 10^−5 M; read-out: Growth inhibition (%)
HOP-92 = assay: NCI-60 SRB screen; assay type: cell-based, human; details: Homo sapiens; HOP-92; single dose 10^−5 M; read-out: Growth inhibition (%)
NCI-H226 = assay: NCI-60 SRB screen; assay type: cell-based, human; details: Homo sapiens; NCI-H226; single dose 10^−5 M; read-out: Growth inhibition (%)
NCI-H23 = assay: NCI-60 SRB screen; assay type: cell-based, human; details: Homo sapiens; NCI-H23; single dose 10^−5 M; read-out: Growth inhibition (%)
NCI-H322M = assay: NCI-60 SRB screen; assay type: cell-based, human; details: Homo sapiens, single dose 10^−5 M, read-out: Growth inhibition (%)
NCI-H460 = assay: NCI-60 SRB screen; assay type: cell-based, human; details: Homo sapiens; NCI-H460; single dose 10^−5 M; read-out: Growth inhibition (%)
NCI-H522 = assay: NCI-60 SRB screen; assay type: cell-based, human; details: Homo sapiens; NCI-H522; single dose 10^−5 M; read-out: Growth inhibition (%)
COLO 205 = assay: NCI-60 SRB screen; assay type: cell-based, human; details: Homo sapiens; COLO 205; single dose 10^−5 M; read-out: Growth inhibition (%)
HCC-2998 = assay: NCI-60 SRB screen; assay type: cell-based, human; details: Homo sapiens; HCC-2998; single dose 10^−5 M; read-out: Growth inhibition (%)
HCT-116 = assay: NCI-60 SRB screen; assay type: cell-based, human; details: Homo sapiens; HCT-116; single dose 10^−5 M; read-out: Growth inhibition (%)
HCT-15 = assay: NCI-60 SRB screen; assay type: cell-based, human; details: Homo sapiens; HCT-15; single dose 10^−5 M; read-out: Growth inhibition (%)
HT-29 = assay: NCI-60 SRB screen; assay type: cell-based; details: Homo sapiens; HT-29; single dose 10^−5 M; read-out: Growth inhibition (%)
KM12 = assay: NCI-60 SRB screen; assay type: cell-based, human; details: Homo sapiens; KM12; single dose 10^−5 M; read-out: Growth inhibition (%)
SW-620 = assay: NCI-60 SRB screen; assay type: cell-based; details: Homo sapiens; SW-620; single dose 10^−5 M; read-out: Growth inhibition (%)
SF-268 = assay: NCI-60 SRB screen; assay type: cell-based, human; details: Homo sapiens; SF-268; single dose 10^−5 M; read-out: Growth inhibition (%)
SF-295 = assay: NCI-60 SRB screen; assay type: cell-based, human; details: Homo sapiens; SF-295; single dose 10^−5 M; read-out: Growth inhibition (%)
LOX IMVI = assay: NCI-60 SRB screen; assay type: cell-based, human; details: Homo sapiens, single dose 10^−5 M, read-out: Growth inhibition (%)
M14 = assay: NCI-60 SRB screen; assay type: cell-based, human; details: Homo sapiens; M14; single dose 10^−5 M; read-out: Growth inhibition (%)
MDA-MB-435 = assay: NCI-60 SRB screen; assay type: cell-based; details: Homo sapiens, MDA-MB-435, read-out: Growth inhibition (%)
SK-MEL-2 = assay: NCI-60 SRB screen; assay type: cell-based, human; details: Homo sapiens; SK-MEL-2; single dose 10^−5 M; read-out: Growth inhibition (%)
SK-MEL-28 = assay: NCI-60 SRB screen; assay type: cell-based; details: Homo sapiens; SK-MEL-28; single dose 10^−5 M; read-out: Growth inhibition (%)
SK-MEL-5 = assay: NCI-60 SRB screen; assay type: cell-based, human; details: Homo sapiens; SK-MEL-5; single dose 10^−5 M; read-out: Growth inhibition (%)
UACC-257 = assay: NCI-60 SRB screen; assay type: cell-based, human; details: Homo sapiens, UACC-257; UACC-275 (so in the source); single dose 10^−5 M; read-out: Growth inhibition (%)
UACC-62 = assay: NCI-60 SRB screen; assay type: cell-based, human; details: Homo sapiens; UACC-62; single dose 10^−5 M; read-out: Growth inhibition (%)
IGROV1 = assay: NCI-60 SRB screen; assay type: cell-based, human; details: Homo sapiens, IGROV-1; IGROV1; single dose 10^−5 M; read-out: Growth inhibition (%)
OVCAR-3 = assay: NCI-60 SRB screen; assay type: cell-based, human; details: Homo sapiens; OVCAR-3; single dose 10^−5 M; read-out: Growth inhibition (%)
OVCAR-4 = assay: NCI-60 SRB screen; assay type: cell-based, human; details: Homo sapiens; OVCAR-4; single dose 10^−5 M; read-out: Growth inhibition (%)
OVCAR-8 = assay: NCI-60 SRB screen; assay type: cell-based, human; details: Homo sapiens; OVCAR-8; single dose 10^−5 M; read-out: Growth inhibition (%)
NCI/ADR-RES = assay: NCI-60 SRB screen; assay type: cell-based, human; details: Homo sapiens, single dose 10^−5 M, read-out: Growth inhibition (%)
SK-OV-3 = assay: NCI-60 SRB screen; assay type: cell-based, human; details: Homo sapiens; SK-OV-3; single dose 10^−5 M; read-out: Growth inhibition (%)
786-0 = assay: NCI-60 SRB screen; assay type: cell-based; details: Homo sapiens; 786-0; single dose 10^−5 M; read-out: Growth inhibition (%)
ACHN = assay: NCI-60 SRB screen; assay type: cell-based; details: Homo sapiens, single dose 10^−5 M, read-out: Growth inhibition (%)
CAKI-1 = assay: NCI-60 SRB screen; assay type: cell-based, human; details: Homo sapiens; CAKI-1; single dose 10^−5 M; read-out: Growth inhibition (%)
RXF 393 = assay: NCI-60 SRB screen; assay type: cell-based, human; details: Homo sapiens; RXF 393; single dose 10^−5 M; read-out: Growth inhibition (%)
SN12C = assay: NCI-60 SRB screen; assay type: cell-based, human; details: Homo sapiens, SN12C; SN 12 C; single dose 10^−5 M; read-out: Growth inhibition (%)
TK-10 = assay: NCI-60 SRB screen; assay type: cell-based, human; details: Homo sapiens; TK-10; single dose 10^−5 M; read-out: Growth inhibition (%)
UO-31 = assay: NCI-60 SRB screen; assay type: cell-based, human; details: Homo sapiens; UO-31; single dose 10^−5 M; read-out: Growth inhibition (%)
[1] = tested on: panel of 60 cancer cell lines; assay: NCI-60 SRB screen, mean or range over the panel; assay type: cell-based, human; details: Homo sapiens; mean over the cell lines; single dose 10^−5 M; read-out: Mean growth inhibition (%)

`COc1ccc(C2NC(=O)C(C#N)c3c2sc2c(F)cccc32)c(OC)c1` (stereo not shown) [Compound 5a, 1-(2,4-Dimethoxyphenyl)-4-cyano-8-fluoro-1,2-dihydro[1]benzothieno [2,3-c]pyridin-3(4H)-one] showed an inhibition at 10 µM (HL-60(TB)) of 43%, an inhibition at 10 µM (K-562) of 76.1% and an inhibition at 10 µM (MOLT-4) of 28.6%. For the same molecule, the inhibition at 10 µM (SR) was 86.1%, the inhibition at 10 µM (A549/ATCC) was 41.5% and the inhibition at 10 µM (EKVX) was 20.7%. The inhibition at 10 µM (HOP-62) was 42.6%, the inhibition at 10 µM (HOP-92) was 57.8% and the inhibition at 10 µM (NCI-H226) was 37.8%. It also gave an inhibition at 10 µM (NCI-H23) of 35.2%, an inhibition at 10 µM (NCI-H322M) of 9.6% and an inhibition at 10 µM (NCI-H460) of 68.2%. For the same molecule, the inhibition at 10 µM (NCI-H522) was 92%, the inhibition at 10 µM (COLO 205) was 11.7% and the inhibition at 10 µM (HCC-2998) was 11.7%. The inhibition at 10 µM (HCT-116) was 77.2%, the inhibition at 10 µM (HCT-15) was 63.6% and the inhibition at 10 µM (HT-29) was 36%. For the same molecule, the inhibition at 10 µM (KM12) was 69%, the inhibition at 10 µM (SW-620) was 68.7% and the inhibition at 10 µM (SF-268) was 48.9%. It also gave an inhibition at 10 µM (SF-295) of 72.4%, an inhibition at 10 µM (LOX IMVI) of 60.3% and an inhibition at 10 µM (M14) of 62.2%. For the same molecule, the inhibition at 10 µM (MDA-MB-435) was -129%, the inhibition at 10 µM (SK-MEL-2) was 35.9% and the inhibition at 10 µM (SK-MEL-28) was 45.9%. For the same molecule, the inhibition at 10 µM (SK-MEL-5) was 18.2%, the inhibition at 10 µM (UACC-257) was 31.8% and the inhibition at 10 µM (UACC-62) was 58.8%. For the same molecule, the inhibition at 10 µM (IGROV1) was 48.2%, the inhibition at 10 µM (OVCAR-3) was 86.3% and the inhibition at 10 µM (OVCAR-4) was 46.3%. It also gave an inhibition at 10 µM (OVCAR-8) of 38.7%, an inhibition at 10 µM (NCI/ADR-RES) of 84.4% and an inhibition at 10 µM (SK-OV-3) of 49.3%. It also gave an inhibition at 10 µM (786-0) of 31.6%, an inhibition at 10 µM (ACHN) of 62.5% and an inhibition at 10 µM (CAKI-1) of 78.7%. The inhibition at 10 µM (RXF 393) was 90.3%, the inhibition at 10 µM (SN12C) was 26.3% and the inhibition at 10 µM (TK-10) was 1.9%. It also gave an inhibition at 10 µM (UO-31) of 66% and an inhibition at 10 µM [1] of 52.5%.
Work on `COc1ccc(C2NC(=O)C(C#N)c3c2sc2c(F)cccc32)cc1` (stereo not shown) [Compound 5b, 4-Cyano-8-fluoro-1-(4-methoxyphenyl)-1,2-dihydro[1]benzothieno[2,3-c] pyridin-3(4H)-one] yielded an inhibition at 10 µM (HL-60(TB)) of 89.5%, an inhibition at 10 µM (K-562) of 86% and an inhibition at 10 µM (MOLT-4) of 50.9%. It also gave an inhibition at 10 µM (SR) of 77.9%, an inhibition at 10 µM (A549/ATCC) of 58.5% and an inhibition at 10 µM (EKVX) of 38.3%. For the same molecule, the inhibition at 10 µM (HOP-62) was 54.6%, the inhibition at 10 µM (HOP-92) was 45.9% and the inhibition at 10 µM (NCI-H226) was 39.8%. For the same molecule, the inhibition at 10 µM (NCI-H23) was 24.8%, the inhibition at 10 µM (NCI-H322M) was 34.8% and the inhibition at 10 µM (NCI-H460) was 71.4%. It also gave an inhibition at 10 µM (NCI-H522) of 79.9%, an inhibition at 10 µM (COLO 205) of 8.44% and an inhibition at 10 µM (HCC-2998) of 8.46%. For the same molecule, the inhibition at 10 µM (HCT-116) was 62.5%, the inhibition at 10 µM (HCT-15) was 66.5% and the inhibition at 10 µM (HT-29) was 49.5%. It also gave an inhibition at 10 µM (KM12) of 60%, an inhibition at 10 µM (SW-620) of 75.7% and an inhibition at 10 µM (SF-268) of 39%. It also gave an inhibition at 10 µM (SF-295) of 69.5%, an inhibition at 10 µM (LOX IMVI) of 54.4% and an inhibition at 10 µM (M14) of 66.7%. It also gave an inhibition at 10 µM (MDA-MB-435) of 109%, an inhibition at 10 µM (SK-MEL-2) of 40% and an inhibition at 10 µM (SK-MEL-28) of 47.4%. For the same molecule, the inhibition at 10 µM (SK-MEL-5) was 39.5%, the inhibition at 10 µM (UACC-257) was 36.1% and the inhibition at 10 µM (UACC-62) was 64.7%. It also gave an inhibition at 10 µM (IGROV1) of 58.9%, an inhibition at 10 µM (OVCAR-3) of 99.4% and an inhibition at 10 µM (OVCAR-4) of 28.4%. For the same molecule, the inhibition at 10 µM (OVCAR-8) was 30.2%, the inhibition at 10 µM (NCI/ADR-RES) was 70.7% and the inhibition at 10 µM (SK-OV-3) was 36.9%. For the same molecule, the inhibition at 10 µM (786-0) was 29.1%, the inhibition at 10 µM (ACHN) was 55.5% and the inhibition at 10 µM (CAKI-1) was 60%. The inhibition at 10 µM (RXF 393) was 44.1%, the inhibition at 10 µM (SN12C) was 38.6% and the inhibition at 10 µM (TK-10) was -12.7%. For the same molecule, the inhibition at 10 µM (UO-31) was 64.2% and the inhibition at 10 µM [1] was 52.5%.
